The source of these data is US20200113902A1, “COMPOSITIONS AND METHODS FOR TREATING CANCERS WITH COVALENT INHIBITORS OF CYCLIN-DEPENDENT KINASE 7 (CDK7)” (Syros Pharmaceuticals, Inc., priority 2017, published 2020).

This experiment deals with MCL1 protein in KG1 cells. The experiment can be described thus: Western blot, AML cell line KG1. Format: cell-based. As to conditions: 50 nM. As for the experimental part:
Cytotoxic cancer cell lines HCC70 and TOV21G, and cytostatic cancer cell lines T47D and COV318 were seeded in wells of a six-well dish at a density of 1×10^6 cells/well and allowed to adhere overnight. Cells were then treated with 50 nM of Compound 1 for 16 or 24 hours, or with DMSO (0 hours) representing a negative control. Cells were harvested and placed on ice, and resuspended in RIPA lysis buffer supplemented with protease and phosphatase inhibitors. Clarified lysates prepared with 4×LSD running buffer and boiled at 95° C. for 5 minutes. Equivalent amounts of sample (10 μg total protein) were run on a 4-12% Bis-Tris gel and transferred to a PDVF membrane for Western blotting using standard Western blotting protocols. Membranes were blocked with Licor TBS blocking buffer then probed with antibodies for BCL-XL, BCL-2, MCL1, BID, and GAPDH visualized using and Odyssey imager (FIGS. 23A and 23D).
We next explored the expression of MCL1, BCL-XL and BCL2 in four different AML cell lines. MV411, OCI-AML3 and KG1 cells were separately grown and prepared as described in Example 2 for Western blotting, using antibodies specific for BCL2 (FIG. 24A), BCL-XL, MCL-1 and tubulin as an internal control (FIG. 24B).
(In general: A western blot detects proteins with antibodies after separation by electrophoresis.)

On to `CN(C)C/C=C/C(=O)Nc1ccc(C(=O)N[C@@]2(C)CCC[C@@H](Nc3ncc(Cl)c(-c4c[nH]c5ccccc45)n3)C2)nc1` [Compound 1, N-((1S,3R)-3-(5-chloro-4-(1H-indol-3-yl)pyrimidin-2-ylamino)-1-methylcyclohexyl)-5-((E)-4-(dimethylamino)but-2-enamido)picolinamide], for which the “MCL1 protein level (Western blot)” value is on record as “significant reduction in MCL1”.
